Laboratory results reported in US6139840A, “Methods of eliciting an antibody response using flea protease proteins and homologs thereof” (priority 1997, dated 2000).
Like-named read-outs stand apart in the source and are kept apart here. Square brackets hold non-standard residues; d marks the D form. Peptide text beside a SMILES is read from it. * marks the point of attachment. Sta = CC(C)C[C@H](N)[C@@H](O)CC(=O)O; Isovaleryl = CC(C)CC(=O)*

Key:
adult fleas = assay: Flea feeding system: viability and fecundity of fleas fed blood containing protease inhibitors; format: in vivo; settings: for Adult Survival Female / Adult Survival Male / Adult Survival Total / Fecundity Days 1-7: percent of corresponding control group
Method: This Example evaluates the effect of a number of protease inhibitors on flea viability and fecundity in a flea feeding system as described by Wade et al. ibid.
Protease inhibitor compounds were tested in groups of 3 to 6 including appropriate control groups. Inhibitors were not tested in groups of common inhibition types. Rather, they were tested in groups based on the diluent needed to dissolve them. (AEBSF, aprotinin, bestatin, leupeptin, phosphoramidon, soybean trypsin inhibitor and soybean trypsin/chymotrypsin inhibitor were dissolved in water; E-64 and pepstatin were dissolved in ethanol). This reduced the number of control (diluent only) groups needed within a particular assay. Inhibitor concentrations were chosen such that the lower concentration used was within the range recommended by the supplier for that inhibitor. The higher concentration was typically 10 times above the lower concentration and was used to look for dose response.
The general protocol for all of the assays was as follows: Approximately 2000 newly emerged adult fleas were placed in feeding chambers to feed on normal blood for about 24 to 48 hr. The fleas were prefed for two reasons: The first was to be certain that only fleas that would feed in the feeding system were used in the comparative study.
The prefed fleas were placed in "minifeeder" feeding chambers at a ratio of about 80 female fleas to about 20 male fleas for a total of about 100 fleas per chamber. Actual total number of fleas per chamber varied from about 90 to 125 fleas. […] Three chambers were prepared for each experimental and control group. A fresh blood meal containing the appropriate inhibitor in 3 ml total volume was placed on each chamber daily through the 7 day extent of an assay.
On days 3, 5, and 7 of the assay, surviving adult fleas were transferred to clean chambers. The contents of the original chambers were dissolved in about 40 ml of PBS (phosphate-buffered saline) in a 50 ml Falcon tube. The contents of a given tube were then filtered through a preweighed #1 Whatman filter disk inserted into a vacuum filter. The 50 ml tube and the filter funnel were rinsed with distilled water which was then passed through the filter. Once the chamber contents had been filtered, dead adult fleas were removed from the filter paper and placed in a labelled tube so that they could be counted and sexed. The filter paper was then placed into a preweighed 12×75 polypropylene tube and dried in the SpeedVac for 2.5 hr with the heater on. After drying the filter paper was weighed. The weight of the filter paper and tube was subtracted to obtain the dry weight of the eggs and this value was converted to an estimated number of eggs using the formula y=41384.361x+162.37, where x=dry weight of eggs.
On day 7, adult fleas that had survived the study were frozen, counted and sexed. The numbers were added to the number of male and female fleas that had died during the assay to verify the number of male and female fleas in each chamber at the start of the study.
Female, male and total adult flea survival were calculated for all experimental and control groups on days 3, 5, and 7 of each assay. Additionally, the number of eggs per surviving female was calculated on days 3, 5 and 7. Female fleas found dead on a given collection date were included in the total number of egg-laying females for the days between that date and the previous collection date, providing a conservative estimate of fecundity. Fecundity values were averaged for the three collection dates to obtain an average for each group over 7 days.
Results of these studies are presented below in Table 1 and FIG. 6 through FIG. 9. All survival and fecundity values are presented below as a percent of control value.

flea aminopeptidase = assay: Leu-AMC cleavage by serine protease-depleted flea midgut lysate; format: biochemical
Method: The starting material for the isolation of a flea aminopeptidase was a flea midgut lysate preparation that had been depleted of serine proteases by passage over a benzamidine-Sepharose affinity column. To assay for aminopeptidase activity, the synthetic substrate L-Leucine-AMC (Leu-AMC), which releases a fluorescent AMC leaving group upon proteolytic cleavage, was incubated with the serine protease-depleted flea midgut preparation. Aminopeptidase activity was easily detectable with as little as 1.2 μg of lysate, both confirming the presence of an aminopeptidase (as indicated in other Examples herein) and allowing for the detection of aminopeptidase activity in fractions collected throughout subsequent fractionation and purification procedures.

[1] = at the concentrations tested in blood meal
[2] = 1 mM pefabloc, 1 mg/ml trypsin/chymotrypsin inhibitor, 1 mg/ml trypsin inhibitor, 1 mM TPCK, 1 μg/ml pepstatin, 10 μg/ml E-64, 10 μg/ml leupeptin, 10 mM EDTA, 86 μg/ml bestatin, lysate about 1.2 μg and about 12 μg
[3] = 1 μg/ml in blood meal, second 1 μg/ml line under E-64
[4] = 10 μg/ml in blood meal, second 10 μg/ml line under E-64

`CC(C)C[C@H](NP(=O)(O)O[C@@H]1O[C@@H](C)[C@H](O)[C@@H](O)[C@H]1O)C(=O)N[C@@H](Cc1c[nH]c2ccccc12)C(=O)O` [Phosphoramidon] was tested, and the “Adult Survival Female” value (adult fleas; 10 μg/ml in blood meal) was 98.8%, the “Adult Survival Male” value (adult fleas; 10 μg/ml in blood meal) was 95.2% and the “Adult Survival Total” value (adult fleas; 10 μg/ml in blood meal) was 97.8%. For the same molecule, the “Fecundity Days 1-7” value (adult fleas; 10 μg/ml in blood meal) was 89.0%, the “Adult Survival Female” value (adult fleas; 100 μg/ml in blood meal) was 70.2% and the “Adult Survival Male” value (adult fleas; 100 μg/ml in blood meal) was 64.6%. For the same molecule, the “Adult Survival Total” value (adult fleas; 100 μg/ml in blood meal) was 69.7%, the “Fecundity Days 1-7” value (adult fleas; 100 μg/ml in blood meal) was 84.9% and the effect on fecundity (adult fleas; [1]) was “no significant reduction in fecundity”. For the same molecule, the “reduction in adult viability” value (adult fleas; concentration not given, not statistically significant) was “about 30%”.

With `CC(C)CC(NC(=O)C1OC1C(=O)O)C(=O)NCCCCNC(=N)N` [E-64, trans-epoxysuccinyl-L-leucylamido-(4-guanidino)butane] the “inhibition of the flea protease that cleaved Leu-AMC” value (“inhibition” for short) (flea aminopeptidase; [2]) was “Only bestatin inhibited”, the “Adult Survival Female” value (adult fleas; [3]) was 77.3% and the “Adult Survival Male” value (adult fleas; [3]) was 80.0%. For the same molecule, the “Adult Survival Total” value (adult fleas; [3]) was 77.5%, the “Fecundity Days 1-7” value (adult fleas; [3]) was 95.2% and the “Adult Survival Female” value (adult fleas; 1 μg/ml in blood meal) was 99.9%. The “Fecundity Days 1-7” value (adult fleas; 1 μg/ml in blood meal) was 109.4%, the “Adult Survival Female” value (adult fleas; [4]) was 90.2% and the “Adult Survival Male” value (adult fleas; [4]) was 91.1%. The “Adult Survival Total” value (adult fleas; [4]) was 90.6%, the “Fecundity Days 1-7” value (adult fleas; [4]) was 84.1% and the “Fecundity Days 1-7” value (adult fleas; 10 μg/ml in blood meal) was 177.4%. The effect on fecundity (adult fleas; [1]) was “no statistically significant reduction in fecundity”, the “total adult flea survival” value (adult fleas; dissolved in grain alcohol, 1 μg/ml in blood) was “small, but significant (p<0.05), reduction” and the “total adult flea survival” value (adult fleas; in grain alcohol, 10 μg/ml in blood) was “not evident”.

In the case of `CC(C)CC(=O)N[C@H](C(=O)N[C@H](C(=O)N[C@@H](CC(C)C)[C@@H](O)CC(=O)N[C@@H](C)C(=O)N[C@@H](CC(C)C)[C@@H](O)CC(=O)O)C(C)C)C(C)C` [Pepstatin A] (Isovaleryl-VV[Sta]A[Sta]-OH), the “inhibition” value (flea aminopeptidase) is reported as “Only bestatin inhibited”, the “Adult Survival Female” value (adult fleas; 1 μg/ml in blood meal) is reported as 77.6% and the “Adult Survival Male” value (adult fleas; 1 μg/ml in blood meal) is reported as 96.6%. For the same molecule, the “Adult Survival Total” value (adult fleas; 1 μg/ml in blood meal) was 80.5%, the “Fecundity Days 1-7” value (adult fleas; 1 μg/ml in blood meal) was 67.7% and the reduction in fecundity (adult fleas; 1 μg/ml in blood meal, significant (p<0.05)) was 32%. For the same molecule, the “Fecundity Days 1-7” value (adult fleas; 10 μg/ml in blood meal) was 83.9% and the “effect on adult viability” value (adult fleas; [1]) was “no significant effect on adult viability”.

In the case of `Cl.NCCc1ccc(S(=O)(=O)F)cc1` [pefabloc], the “inhibition” value (flea aminopeptidase; [2]) is reported as “Only bestatin inhibited”.

For `Cc1ccc(S(=O)(=O)N[C@@H](Cc2ccccc2)C(=O)CCl)cc1` [TPCK, N-tosyl-L-phenylalanine chloromethyl ketone], the “inhibition” value (flea aminopeptidase; [2]) was “Only bestatin inhibited”.
